Experiments:
[1] = target: T1, human TLR7 (Homo sapiens, UniProt Q9NYK1); experiment: TLR7 inhibition reporter assay (HEK-Blue SEAP); format: cell-based; settings: HEK-Blue cells overexpressing human TLR7, gardiquimod 7.5 μM, 22 hour incubation
T1 construct: host or cells: HEK-Blue cells
T1 sequence (Q9NYK1 27-1049): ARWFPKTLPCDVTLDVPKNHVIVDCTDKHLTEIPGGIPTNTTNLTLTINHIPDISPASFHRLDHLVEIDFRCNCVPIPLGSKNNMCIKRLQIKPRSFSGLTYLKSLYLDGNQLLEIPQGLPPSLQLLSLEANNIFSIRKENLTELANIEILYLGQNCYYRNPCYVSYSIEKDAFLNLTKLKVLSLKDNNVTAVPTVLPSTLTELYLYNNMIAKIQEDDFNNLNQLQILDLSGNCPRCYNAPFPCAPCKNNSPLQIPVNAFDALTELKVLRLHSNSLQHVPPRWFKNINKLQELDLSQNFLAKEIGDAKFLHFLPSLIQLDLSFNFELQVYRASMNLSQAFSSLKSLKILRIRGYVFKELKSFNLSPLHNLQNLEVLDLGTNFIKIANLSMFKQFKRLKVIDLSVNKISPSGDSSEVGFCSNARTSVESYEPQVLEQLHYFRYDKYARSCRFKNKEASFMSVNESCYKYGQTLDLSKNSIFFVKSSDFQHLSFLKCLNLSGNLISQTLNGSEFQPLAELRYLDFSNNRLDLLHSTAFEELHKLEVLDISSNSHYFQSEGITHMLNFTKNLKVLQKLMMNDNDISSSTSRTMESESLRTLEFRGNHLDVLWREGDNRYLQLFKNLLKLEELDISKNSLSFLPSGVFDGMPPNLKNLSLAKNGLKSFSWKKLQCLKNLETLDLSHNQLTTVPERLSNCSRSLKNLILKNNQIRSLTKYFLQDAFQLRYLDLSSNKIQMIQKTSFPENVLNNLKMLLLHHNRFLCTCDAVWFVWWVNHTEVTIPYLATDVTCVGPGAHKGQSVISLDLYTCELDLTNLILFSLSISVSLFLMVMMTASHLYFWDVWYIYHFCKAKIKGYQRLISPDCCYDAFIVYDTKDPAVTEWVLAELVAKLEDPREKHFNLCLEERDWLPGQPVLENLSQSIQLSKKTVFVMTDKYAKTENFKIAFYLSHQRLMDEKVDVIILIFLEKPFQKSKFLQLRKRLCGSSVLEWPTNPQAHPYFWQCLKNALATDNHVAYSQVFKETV
Method: (§1) TLR7/8/9 Inhibition Reporter Assays
Briefly, cells are seeded into Greiner 384 well plates (15000 cells per well for TLR7, 20,000 for TLR8 and 25,000 for TLR9) and then treated with test compounds in DMSO to yield a final dose response concentration range of 0.05 nM-50 μM. […] After a 22 hour incubation at 37° C., 5% CO2, SEAP levels are determined with the addition of HEK-Blue™ Detection reagent (Invivogen), a cell culture medium that allows for detection of SEAP, according to manufacturer's specifications. The percent inhibition is determined as the % reduction in the HEK-Blue signal present in wells treated with agonist plus DMSO alone compared to wells treated with a known inhibitor.

[2] = target: T2, human TLR9 (Homo sapiens, UniProt Q9NR96); experiment: TLR9 inhibition reporter assay (HEK-Blue SEAP); format: cell-based; settings: HEK-Blue cells overexpressing human TLR9, ODN2006 5 nM, 22 hour incubation
T2 construct: host or cells: HEK-Blue cells
T2 sequence (Q9NR96 26-1032): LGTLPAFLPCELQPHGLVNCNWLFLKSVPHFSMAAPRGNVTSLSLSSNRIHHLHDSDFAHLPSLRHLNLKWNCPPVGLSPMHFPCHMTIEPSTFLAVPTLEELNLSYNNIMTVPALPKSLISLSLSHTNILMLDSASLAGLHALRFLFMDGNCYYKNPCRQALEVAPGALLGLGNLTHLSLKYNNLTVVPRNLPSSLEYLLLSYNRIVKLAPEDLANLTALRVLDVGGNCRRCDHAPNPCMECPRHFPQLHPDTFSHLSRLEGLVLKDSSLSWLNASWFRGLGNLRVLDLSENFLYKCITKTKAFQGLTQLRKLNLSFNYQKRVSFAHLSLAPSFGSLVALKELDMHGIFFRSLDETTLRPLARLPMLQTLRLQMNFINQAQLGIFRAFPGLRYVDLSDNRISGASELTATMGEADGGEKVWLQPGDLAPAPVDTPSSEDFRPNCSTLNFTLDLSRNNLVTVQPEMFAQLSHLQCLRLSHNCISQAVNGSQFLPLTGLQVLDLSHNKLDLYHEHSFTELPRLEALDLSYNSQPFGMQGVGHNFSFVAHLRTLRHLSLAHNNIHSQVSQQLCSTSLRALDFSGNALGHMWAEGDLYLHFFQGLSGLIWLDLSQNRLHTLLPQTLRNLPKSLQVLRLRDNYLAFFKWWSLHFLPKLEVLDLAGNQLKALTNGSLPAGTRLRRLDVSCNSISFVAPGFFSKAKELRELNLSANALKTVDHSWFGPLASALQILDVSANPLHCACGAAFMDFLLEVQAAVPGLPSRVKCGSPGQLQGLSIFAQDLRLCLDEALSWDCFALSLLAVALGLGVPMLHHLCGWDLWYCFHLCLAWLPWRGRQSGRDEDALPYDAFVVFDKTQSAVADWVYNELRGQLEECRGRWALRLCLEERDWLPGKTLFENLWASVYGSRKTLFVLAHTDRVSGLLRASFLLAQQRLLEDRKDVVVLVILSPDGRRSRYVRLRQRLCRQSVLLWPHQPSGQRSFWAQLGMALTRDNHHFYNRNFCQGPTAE
Method: as §1
HEK-Blue™-cells (Invivogen) overexpressing human TLR7, TLR8 or TLR9 receptors were used for screening inhibitors of these receptors using an inducible SEAP (secreted embryonic alkaline phosphatase) reporter gene under the control of the IFN-β minimal promoter fused to five NF-κB and AP-1-binding sites. Briefly, cells are seeded into Greiner 384 well plates (15000 cells per well for TLR7, 20,000 for TLR8 and 25,000 for TLR9) and then treated with test compounds in DMSO to yield a final dose response concentration range of 0.05 nM-50 μM. After a 30 minute compound pre-treatment at room temperature, the cells are then stimulated with a TLR7 ligand (gardiquimod at a final concentration of 7.5 μM), TLR8 ligand (R848 at a final concentration of 15.9 μM) or TLR9 ligand (ODN2006 at a final concentration of 5 nM) to activate NF-κB and AP-1 which induce the production of SEAP. After a 22 hour incubation at 37° C., 5% CO2, SEAP levels are determined with the addition of HEK-Blue™ Detection reagent (Invivogen), a cell culture medium that allows for detection of SEAP, according to manufacturer's specifications. The percent inhibition is determined as the % reduction in the HEK-Blue signal present in wells treated with agonist plus DMSO alone compared to wells treated with a known inhibitor.

Structure (SMILES) | IC50 [1] [nM] | IC50 [2] [nM]
Cc1cc2c(cc1-c1cc(C)c3ncnn3c1)[nH]c(=O)n2C1CCN(C(=O)CN(C)C)CC1 [Example 101, 1-(1-(dimethylglycyl)piperidin-4-yl)-6-methyl-5-(8-methyl-[1,2,4]triazolo[1,5-a]pyridin-6-yl)-1,3-dihydro-2H-benzo[d]imidazol-2-one] | 173 | 2580
Cc1cc(-c2ccc3c(c2)[nH]c(=O)n3C2CCN(C(=O)CN(C)C)CC2)cn2ncnc12 [Example 102, 1-(1-(dimethylglycyl)piperidin-4-yl)-5-(8-methyl-[1,2,4]triazolo[1,5-a]pyridin-6-yl)-1,3-dihydro-2H-benzo[d]imidazol-2-one] | > 3130 | 3210
Cc1cc2c(cc1-c1cc(C)c3ncnn3c1)[nH]c(=O)n2[C@H]1CCCN(C(=O)CN(C)C)C1 [Example 103, (S)-1-(1-(dimethylglycyl)piperidin-3-yl)-6-methyl-5-(8-methyl-[1,2,4]triazolo[1,5-a]pyridin-6-yl)-1,3-dihydro-2H-benzo[d]imidazol-2-one] | 215 | 4720
Cc1cc2c(cc1-c1cc(C)c3ncnn3c1)[nH]c(=O)n2[C@@H]1CCCN(C(=O)CN(C)C)C1 [Example 104, (R)-1-(1-(dimethylglycyl)piperidin-3-yl)-6-methyl-5-(8-methyl-[1,2,4]triazolo[1,5-a]pyridin-6-yl)-1,3-dihydro-2H-benzo[d]imidazol-2-one] | 71 | 1450
COc1cc(-c2cc3[nH]c(=O)n(C4CCCN(C(=O)CN(C)C)C4)c3cc2C)cn2ncnc12 (stereo not drawn) [Example 105, 1-(1-(dimethylglycyl)piperidin-3-yl)-5-(8-methoxy-[1,2,4]triazolo[1,5-a]pyridin-6-yl)-6-methyl-1,3-dihydro-2H-benzo[d]imidazol-2-one] | 399 | 7940
Cc1cc(-c2cc(C)c3ncnn3c2)cc2[nH]c(=O)n(C3CCN(C)CC3)c12 [Example 106, 7-methyl-5-(8-methyl-[1,2,4]triazolo[1,5-a]pyridin-6-yl)-1-(1-methylpiperidin-4-yl)-1,3-dihydro-2H-benzo[d]imidazol-2-one] | 29.7 | 3740
Cc1cc(-c2cc(C)c3ncnn3c2)cc2[nH]c(=O)n(C3CCN(C(C)C)CC3)c12 [Example 107, 1-(1-isopropylpiperidin-4-yl)-7-methyl-5-(8-methyl-[1,2,4]triazolo[1,5-a]pyridin-6-yl)-1,3-dihydro-2H-benzo[d]imidazol-2-one] | 32.9 | 2990
CCN1CCC(n2c(=O)[nH]c3cc(-c4cc(C)c5ncnn5c4)cc(C)c32)CC1 [Example 108, 1-(1-ethylpiperidin-4-yl)-7-methyl-5-(8-methyl-[1,2,4]triazolo[1,5-a]pyridin-6-yl)-1,3-dihydro-2H-benzo[d]imidazol-2-one] | 11.5 | 1160
Cc1cc(-c2cc(C)c3ncnn3c2)cc2[nH]c(=O)n(C3CCN(CC(=O)N(C)C)CC3)c12 [Example 109, N,N-dimethyl-2-(4-(7-methyl-5-(8-methyl-[1,2,4]triazolo[1,5-a]pyridin-6-yl)-2-oxo-2,3-dihydro-1H-benzo[d]imidazol-1-yl)piperidin-1-yl)acetamide] | 74.1 | 14300
CCN1CCC[C@@H](n2c(=O)[nH]c3cc(-c4cc(OC)c5ncnn5c4)c(C(F)(F)F)cc32)C1 [Example 110, (R)-1-(1-ethylpiperidin-3-yl)-5-(8-methoxy-[1,2,4]triazolo[1,5-a]pyridin-6-yl)-6-(trifluoromethyl)-1,3-dihydro-2H-benzo[d]imidazol-2-one] | 16.8 | 7820
COc1cc(-c2cc3[nH]c(=O)n([C@@H]4CCCN(C(C)C)C4)c3cc2C(F)(F)F)cn2ncnc12 [Example 111, (R)-1-(1-isopropylpiperidin-3-yl)-5-(8-methoxy-[1,2,4]triazolo[1,5-a]pyridin-6-yl)-6-(trifluoromethyl)-1,3-dihydro-2H-benzo[d]imidazol-2-one] | 23.6 | 9940
COc1cc(-c2cc3[nH]c(=O)n([C@@H]4CCCN(CC5CCOCC5)C4)c3cc2C(F)(F)F)cn2ncnc12 [Example 112, (R)-5-(8-methoxy-[1,2,4]triazolo[1,5-a]pyridin-6-yl)-1-(1-((tetrahydro-2H-pyran-4-yl)methyl)piperidin-3-yl)-6-(trifluoromethyl)-1,3-dihydro-2H-benzo[d]imidazol-2-one] | 30.8 | 12700
COc1cc(-c2cc3[nH]c(=O)n([C@@H]4CCCN(C5COC5)C4)c3cc2C(F)(F)F)cn2ncnc12 [Example 113, (R)-5-(8-methoxy-[1,2,4]triazolo[1,5-a]pyridin-6-yl)-1-(1-(oxetan-3-yl)piperidin-3-yl)-6-(trifluoromethyl)-1,3-dihydro-2H-benzo[d]imidazol-2-one] | 488 | > 50000
COc1cc(-c2cc3[nH]c(=O)n([C@@H]4CCCN(C)C4)c3cc2C(F)(F)F)cn2ncnc12 [Example 114, (R)-5-(8-methoxy-[1,2,4]triazolo[1,5-a]pyridin-6-yl)-1-(1-methylpiperidin-3-yl)-6-(trifluoromethyl)-1,3-dihydro-2H-benzo[d]imidazol-2-one] | 2.87 | 618
CCCN1CCC[C@@H](n2c(=O)[nH]c3cc(-c4cc(OC)c5ncnn5c4)c(C(F)(F)F)cc32)C1 [Example 115, (R)-5-(8-methoxy-[1,2,4]triazolo[1,5-a]pyridin-6-yl)-1-(1-propylpiperidin-3-yl)-6-(trifluoromethyl)-1,3-dihydro-2H-benzo[d]imidazol-2-one] | 34.1 | 13400
